Experimental data taken from patent US4522815A, “Anthracycline glycosides” (priority 1982, dated 1985).
In brackets after ≈: the same amount, converted by molar mass. Like-named read-outs stand apart in the source and are kept apart here.

Columns and labels:
HeLa cells = experiment: Colony inhibition test against HeLa cells in vitro (cloning efficiency), treatment for 24 hrs; assay type: cell-based; conditions: for activity at 0.0015 µg/mL: 1.5 ng/ml; for activity at 0.0062 µg/mL: 6.2 ng/ml; for activity at 0.025 µg/mL: 25 ng/ml; for activity at 0.1 µg/mL: 100 ng/ml; for IC50: HeLa colony inhibition; for activity at 0.0125 µg/mL: 12.5 ng/ml
ascitic P388 leukemia = experiment: Antitumor activity against ascitic P388 leukemia in CDF-1 mice, treatment i.p. on day 1; assay type: in vivo
Procedure: The primary screening […] was carried out in CDF-1 mice bearing ascitic P388 leukemia (10^6 cells/mouse). Both IIa and IIc were suspended in 10%. Tween 80 and injected intraperitoneally.
Results of the primary screening "in vivo" carried out in CDF-1 mice bearing P388 ascitic leukemia and treated i.p. the day after tumor transplantation, are reported in Table 5.
Antitumor activity against ascitic P388 leukekemia.
(§1) Treatment i.p. on day 1.
^a median survival time; % over untreated controls
^b long term survivors (≥ 60 days)
^c evaluated on the basis of autoptic findings on dead mice
(§2) ^d data of two experiments (range)
^e date of three experiments (range)
Antitumor activity of Ib and Id against ascitic P388
as §1

Gross leukemia [1] = experiment: Antitumor activity against i.v. transplanted Gross leukemia in C3H/Me mice, treatment i.v. on day 1; assay type: in vivo; conditions: for T/C, median survival time; % over untreated controls / Toxic deaths: Table 6
Excerpt: (§3) Results of studies performed in C3H/Me mice carrying i.v. transplanted Gross leukemia and treated i.v. the day after tumor transplantation, are reported in Table 6. […] The compounds Ib and Id were further investigated for oral activity on Gross leukemic transplanted i.v., in comparison with DNR, DX given i.v. and 4-dm DNR given oral route.
Antitumor activity against i.v. Gross leukemia.
Treatment i.v. on day 1.

Gross leukemia [2] = experiment: Oral activity against i.v. transplanted Gross leukemia (i.v. comparators); assay type: in vivo, C3H/Me mice; conditions: for T/C %, median survival time / Toxic deaths: Table 7
Excerpt: as §3
Oral activity of Ib and Id against Gross leukemia
^a days after transplantation
as §2

[3] = Homo sapiens, HeLa, Table 1, 24 hrs, read-out: No of colonies, % of untreated controls
[4] = Table 2, 30 mg/kg i.p. day 1, two experiments
[5] = Homo sapiens, HeLa, Table 3, 24 hrs, read-out: No of colonies, % of untreated controls
[6] = Homo sapiens, HeLa, 24 h, read-out: No of colonies, % of untreated controls, Table 1, 24 hrs
[7] = Homo sapiens, HeLa, 24 h, read-out: No of colonies, % of untreated controls, Table 3, 24 hrs
[8] = Table 2, 4.4 mg/kg i.p. day 1, two experiments
[9] = Table 2, 6.6 mg/kg i.p. day 1, two (DNR) or three (DX) experiments
[10] = Table 2, 10 mg/kg i.p. day 1, three experiments
[11] = Table 5, 4.4 mg/kg i.p. day 1, DNR: two experiments

## COc1cccc2c1C(=O)c1c(O)c3c(c(O)c1C2=O)C[C@@](O)(C(=O)CO)C[C@@H]3O[C@H]1C=C[C@@H](O)[C@H](C)O1 [Compound IIc, 7-0-(2,3,6-trideoxy-α-L-erythro-hex-2-enopyranosyl)-adriamycinone]
HeLa cells; HeLa cells cloning efficiency, vs DX
  times less cytotoxic than DX: about 5 times
HeLa cells; [3]
  activity at 0.0015 µg/mL: 86%
  activity at 0.0062 µg/mL: 68%
  activity at 0.025 µg/mL: 65%
  activity at 0.1 µg/mL: 33%
HeLa cells; Homo sapiens, HeLa, Table 1, 400 ng/ml, 24 hrs, read-out: No of colonies, % of untreated controls
  activity at 0.4 µg/mL: 4%
HeLa cells; Homo sapiens, Table 1, 24 hrs, read-out: ID50 (the source's name)
  IC50: ~50 ng/mL (≈ 0.095 µM)
Ascitic P388 leukemia; Table 2, 17.6 mg/kg i.p. day 1
  LTS, long term survivors (≥ 60 days): 0/8
  T/C, median survival time; % over untreated controls: 118%
  Toxic deaths (autoptic findings on dead mice): 0/8
Ascitic P388 leukemia; Table 2, 23 mg/kg i.p. day 1
  LTS, long term survivors (≥ 60 days): 0/7
  T/C, median survival time; % over untreated controls: 127%
  Toxic deaths (autoptic findings on dead mice): 0/7
Ascitic P388 leukemia; [4]
  LTS, long term survivors (≥ 60 days): 0/17
  Toxic deaths (autoptic findings on dead mice): 0/17
Ascitic P388 leukemia; Table 2, 30 mg/kg i.p. day 1, two experiments (range)
  T/C, median survival time; % over untreated controls: 125-136%
Ascitic P388 leukemia; Table 2, 45 mg/kg i.p. day 1
  LTS, long term survivors (≥ 60 days): 0/10
  T/C, median survival time; % over untreated controls: 130%
  Toxic deaths (autoptic findings on dead mice): 0/10
Ascitic P388 leukemia; Table 2, 67.5 mg/kg i.p. day 1
  LTS, long term survivors (≥ 60 days): 0/10
  T/C, median survival time; % over untreated controls: 140%
  Toxic deaths (autoptic findings on dead mice): 0/10
Ascitic P388 leukemia; Table 2, 100 mg/kg i.p. day 1
  LTS, long term survivors (≥ 60 days): 0/7
  T/C, median survival time; % over untreated controls: 150%
  Toxic deaths (autoptic findings on dead mice): 0/7
Ascitic P388 leukemia; ascitic P388, i.p.
  toxicity and potency vs parent drugs DNR and DX: less toxic and potent than the parent drugs DNR and DX
Ascitic P388 leukemia; i.p. day 1, IIa: two doses tested incl. Mx TD
  antitumor activity on P388 ascitic leukemia: a certain antitumor activity, which is lower than that of DX

## C[C@@H]1O[C@@H](O[C@H]2C[C@](O)(C(=O)CO)Cc3c(O)c4c(c(O)c32)C(=O)c2ccccc2C4=O)C[C@H](O)[C@H]1O [Compound Id, 4-demethoxy-7-0-(2,6-dideoxy-α-L-arabino-hexopyranosyl)-adriamycinone]
HeLa cells; HeLa cells cloning efficiency
  cytotoxicity in comparison with DX: as cytotoxic as DX
HeLa cells; [5]
  activity at 0.0015 µg/mL: 106%
  activity at 0.0062 µg/mL: 59%
  activity at 0.025 µg/mL: 0%
  activity at 0.1 µg/mL: 0%
HeLa cells; Homo sapiens, Table 3, 24 hrs, read-out: ID50 (the source's name)
  IC50: ~7 ng/mL (≈ 0.0136 µM)
Gross leukemia [1]; Gross leukemia, i.v. day 1
  antitumor activity, comparison of the Mx TD: good antitumor activity, which is of the same order of magnitude as that of DX
  toxicity and potency vs parent compounds: more toxic and more potent than the parent compounds
Gross leukemia [1]; 1.2 mg/kg i.v. day 1
  T/C, median survival time; % over untreated controls: 171%
  Toxic deaths: 1/10
Gross leukemia [1]; 2.16 mg/kg i.v. day 1
  T/C, median survival time; % over untreated controls: 200%
  Toxic deaths: 1/10
Gross leukemia [1]; 3.8 mg/kg i.v. day 1
  T/C, median survival time; % over untreated controls: 114%
  Toxic deaths: 5/9
Gross leukemia [2]; oral +1, 1.2 mg/kg
  T/C %, median survival time: 171%
  Toxic deaths: 0/9
Gross leukemia [2]; oral +1, 2.1 mg/kg
  T/C %, median survival time: 185%
  Toxic deaths: 0/8
Gross leukemia [2]; oral +1, 3.8 mg/kg
  T/C %, median survival time: 214%
  Toxic deaths: 3/8
Gross leukemia [2]; oral days 1,2,3, 0.48 mg/kg
  T/C %, median survival time: 183%
  Toxic deaths: 0/10
Gross leukemia [2]; oral days 1,2,3, 0.62 mg/kg
  T/C %, median survival time: 208%
  Toxic deaths: 0/10
Gross leukemia [2]; oral days 1,2,3, 0.8 mg/kg, two experiments
  Toxic deaths: 2/20
Gross leukemia [2]; oral days 1,2,3, 0.8 mg/kg, two experiments (range)
  T/C %, median survival time: 233-258%
Gross leukemia [2]; oral day 1, Gross leukemia, Id at the Mx TD vs DX i.v.
  antitumor activity given orally at day 1: less active than DX i.v.
Gross leukemia [2]; oral days 1,2,3, vs DX i.v.
  antitumor activity given orally days 1,2,3: higher than that of DX given i.v.
Ascitic P388 leukemia; Table 5, 1.12 mg/kg i.p. day 1
  LTS, long term survivors (≥ 60 days): 0/10
  T/C, median survival time; % over untreated controls: 170%
  Toxic deaths (autoptic findings on dead mice): 0/10
Ascitic P388 leukemia; Table 5, 1.68 mg/kg i.p. day 1
  LTS, long term survivors (≥ 60 days): 0/10
  T/C, median survival time; % over untreated controls: 185%
  Toxic deaths (autoptic findings on dead mice): 0/10
Ascitic P388 leukemia; Table 5, 2.53 mg/kg i.p. day 1
  LTS, long term survivors (≥ 60 days): 1/10
  T/C, median survival time; % over untreated controls: 230%
  Toxic deaths (autoptic findings on dead mice): 2/10
Ascitic P388 leukemia; ascitic P388, i.p. day 1
  times more potent than DX: about 5 times
Ascitic P388 leukemia; vs DX
  antileukemia activity against P388 leukemia: good but lower than that of DX

## COc1cccc2c1C(=O)c1c(O)c3c(c(O)c1C2=O)C[C@@](O)(C(=O)CO)C[C@@H]3O[C@H]1C[C@H](N)[C@H](O)[C@H](C)O1 [DX, doxorubicin, reference compound]
HeLa cells; Homo sapiens, HeLa, 24 h, read-out: ID50, Table 1, 24 hrs
  IC50: ~10 ng/mL (≈ 0.0184 µM)
HeLa cells; Homo sapiens, HeLa, 24 h, read-out: ID50, Table 3, 24 hrs
  IC50: ~7.5 ng/mL (≈ 0.0138 µM)
HeLa cells; [6]
  activity at 0.0062 µg/mL: 69%
  activity at 0.0125 µg/mL: 40%
  activity at 0.025 µg/mL: 24%
HeLa cells; [7]
  activity at 0.0062 µg/mL: 59%
  activity at 0.0125 µg/mL: 28%
  activity at 0.025 µg/mL: 0%
Gross leukemia [1]; 10 mg/kg i.v. day 1
  T/C, median survival time; % over untreated controls: 171%
  Toxic deaths: 0/10
Gross leukemia [1]; 13 mg/kg i.v. day 1
  T/C, median survival time; % over untreated controls: 200%
  Toxic deaths: 0/10
Gross leukemia [1]; 16.9 mg/kg i.v. day 1
  T/C, median survival time; % over untreated controls: 207%
  Toxic deaths: 3/10
Gross leukemia [2]; i.v. +1, 10 mg/kg, two experiments
  Toxic deaths: 1/20
Gross leukemia [2]; i.v. +1, 10 mg/kg, two experiments (range)
  T/C %, median survival time: 171-171%
Gross leukemia [2]; i.v. +1, 13 mg/kg, two experiments
  Toxic deaths: 1/20
Gross leukemia [2]; i.v. +1, 13 mg/kg, two experiments (range)
  T/C %, median survival time: 200-200%
Gross leukemia [2]; i.v. +1, 16.9 mg/kg, two experiments
  Toxic deaths: 3/13
Gross leukemia [2]; i.v. +1, 16.9 mg/kg, two experiments (range)
  T/C %, median survival time: 200-207%
Ascitic P388 leukemia; Table 2, 4.4 mg/kg i.p. day 1, data of two experiments (range)
  T/C, median survival time; % over untreated controls: 220-227%
Ascitic P388 leukemia; [8]
  LTS, long term survivors (≥ 60 days): 2/18
  Toxic deaths (autoptic findings on dead mice): 0/18
Ascitic P388 leukemia; Table 2, 6.6 mg/kg i.p. day 1, range of two (DNR) or three (DX) experiments
  T/C, median survival time; % over untreated controls: 227-305%
Ascitic P388 leukemia; [9]
  LTS, long term survivors (≥ 60 days): 2/26
  Toxic deaths (autoptic findings on dead mice): 0/26
Ascitic P388 leukemia; [10]
  LTS, long term survivors (≥ 60 days): 7/26
  Toxic deaths (autoptic findings on dead mice): 3/26
Ascitic P388 leukemia; [11]
  LTS, long term survivors (≥ 60 days): 1/10
  Toxic deaths (autoptic findings on dead mice): 0/10
Ascitic P388 leukemia; Table 5, 4.4 mg/kg i.p. day 1, DNR: two experiments (range)
  T/C, median survival time; % over untreated controls: 220%
Ascitic P388 leukemia; Table 5, 6.6 mg/kg i.p. day 1
  LTS, long term survivors (≥ 60 days): 0/10
  T/C, median survival time; % over untreated controls: 305%
  Toxic deaths (autoptic findings on dead mice): 0/10
Ascitic P388 leukemia; Table 5, 10 mg/kg i.p. day 1
  LTS, long term survivors (≥ 60 days): 5/10
  T/C, median survival time; % over untreated controls: > 610%
  Toxic deaths (autoptic findings on dead mice): 0/10
